From US9328141B2, “Polypeptides for the treatment or prevention of cancer and uses thereof” (WUHAN KATYGEN PHARMACEUTICALS, INC., priority 2010, dated 2016)

Test system: colon tumor 26
Test: Anti-cancer effect in vivo, transplanted colon tumor 26 in mice
Parameters: species or system BALB/c male mouse
Conditions: cisplatin 1 mg/kg ipx 5, Day 11
Description: The tumors were excised and weighed.
Combine index (CI), CI=AB/(A×B). AB is the T/C of the combined effects of two drugs, A, B either is the T/C of the effect of one drug (when CI<1, these two drugs have combination).

In the case of `N.N.[Cl][Pt][Cl]` [Cisplatin, cisplatin], the The inhibitive rate is reported as 44% and the “tumor weight x ± s” value is reported as 1.39 ± 0.39 g.
